Molecular target: T1, EGFR T790M/L858R (NCI-H1975 cells) (Homo sapiens, UniProt P00533, L858R/T790M)
T1 construct: NCI-H1975 (harboring EGFR heterozygous T790M/L858R mutations); host or cells: NCI-H1975
Test: EGFR (L858R) degradation analysis, Total EGFR (L858R) HTRF, NCI-H1975 cells
Type: cell-based
Details: 6 hours
Text: NCI-H1975 (harboring EGFR heterozygous T790M/L858R mutations) and NCI-H3255 (harboring EGFR heterozygous L858R mutation) were purchased from ATCC and NCI, respectively. NCI-H1975+CS (harboring EGFR heterozygous T/790M/L858R/C797S mutations) was generated using CRISPR technology to introduce the additional C797S mutation by Horizon Discovery. RPMI 1640 no-phenol red medium and fetal bovine serum (FBS) were purchased from Gibco (Grand Island, NY, USA). Cell culture flasks and 384-well microplates were acquired from VWR (Radnor, PA, USA). Total EGFR (L858R) HTRF assay kits were purchased from Cisbio (Bedford, MA, USA).
Degradation of EGFR protein containing L858R mutation was determined based on quantification of FRET signal using Total EGFR (L858R) HTRF assay kit. Test compounds were added to the 384-well plate from a top concentration of 10 μM with 11 points, half log titration in duplicates. NCI-H1975, NCI-H1975+CS or NCI-H3255 cells were added into 384-well plates at a cell density of 10000, 10000 or 1000 cells per well, respectively. The plates were kept at 37° C. with 5% CO2 for 6 hours. Cells treated in the absence of the test compound were the negative control. Positive control was set by wells containing all reagents but no cells. FRET signal was acquired on EnVision™ Multilabel Reader (PerkinElmer, Santa Clara, CA, USA).

T1 sequence (P00533 25-1210 T790M/L858R): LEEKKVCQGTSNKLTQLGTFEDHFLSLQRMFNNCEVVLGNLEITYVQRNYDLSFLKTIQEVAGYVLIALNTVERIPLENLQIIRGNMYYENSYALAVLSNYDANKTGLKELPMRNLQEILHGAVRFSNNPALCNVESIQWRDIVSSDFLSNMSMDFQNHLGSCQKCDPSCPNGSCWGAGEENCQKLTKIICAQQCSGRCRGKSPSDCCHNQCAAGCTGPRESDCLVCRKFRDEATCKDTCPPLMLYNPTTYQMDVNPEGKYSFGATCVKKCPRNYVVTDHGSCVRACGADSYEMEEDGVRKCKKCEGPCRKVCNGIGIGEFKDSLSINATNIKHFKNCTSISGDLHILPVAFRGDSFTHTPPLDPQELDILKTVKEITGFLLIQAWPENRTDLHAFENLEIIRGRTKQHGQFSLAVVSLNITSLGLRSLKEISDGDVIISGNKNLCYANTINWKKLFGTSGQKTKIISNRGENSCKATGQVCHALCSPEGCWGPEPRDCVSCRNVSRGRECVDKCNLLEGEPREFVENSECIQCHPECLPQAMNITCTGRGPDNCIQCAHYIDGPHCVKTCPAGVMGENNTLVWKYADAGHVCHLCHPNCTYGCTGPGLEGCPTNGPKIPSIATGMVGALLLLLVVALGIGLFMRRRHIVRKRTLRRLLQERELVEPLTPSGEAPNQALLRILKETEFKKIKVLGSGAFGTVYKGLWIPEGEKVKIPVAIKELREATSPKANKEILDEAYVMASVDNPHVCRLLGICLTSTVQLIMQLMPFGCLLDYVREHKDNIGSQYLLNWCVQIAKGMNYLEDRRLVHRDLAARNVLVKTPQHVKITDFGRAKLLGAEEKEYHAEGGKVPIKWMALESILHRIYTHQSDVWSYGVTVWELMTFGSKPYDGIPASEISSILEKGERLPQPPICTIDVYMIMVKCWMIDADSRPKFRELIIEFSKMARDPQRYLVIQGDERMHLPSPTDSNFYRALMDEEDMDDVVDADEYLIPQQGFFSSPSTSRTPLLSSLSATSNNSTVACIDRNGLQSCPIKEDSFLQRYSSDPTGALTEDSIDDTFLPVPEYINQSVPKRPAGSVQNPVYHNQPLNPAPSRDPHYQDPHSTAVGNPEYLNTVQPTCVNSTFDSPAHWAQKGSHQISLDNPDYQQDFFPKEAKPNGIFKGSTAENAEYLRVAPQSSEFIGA

Row | SMILES | DC50 [nM] | DC50 (class symbols) [nM]
1 | O=C1CCC(Nc2ccc(C3CCN(CC(=O)N4CC5(C4)CN(c4ccc(-c6cc(F)c7c(c6)C(=O)N(C(C(=O)Nc6nccs6)c6ncn8c6CCC8)C7)cc4)C5)CC3(F)F)cc2)C(=O)N1 (single isomer, unassigned) [Compound 51, 2-(6,7-dihydro-5H-pyrrolo[1,2-c]imidazol-1-yl)-2-(6-(4-(6-(2-(4-(4-((2,6-dioxopiperidin-3-yl)amino)phenyl)-3,3-difluoropiperidin-1-yl)acetyl)-2,6-diazaspiro[3.3]heptan-2-yl)phenyl)-4-fluoro-1-oxoisoindolin-2-yl)-N-(thiazol-2-yl)acetamide] | 13 | –
2 | O=C1CCC(Nc2cc(F)c(N3CCC(O)(CC(=O)N4CCC5(CC4)CN(c4ccc(-c6cc(F)c7c(c6)C(=O)N(C(C(=O)Nc6nccs6)c6ncn8c6CCC8)C7)cc4)C5)CC3)c(F)c2)C(=O)N1 (stereo not shown) [Compound 137, 2-(6,7-dihydro-5H-pyrrolo[1,2-c]imidazol-1-yl)-2-[6-[4-[7-[2-[1-[4-[[2,6-dioxo-3-piperidyl]amino]-2,6-difluoro-phenyl]-4-hydroxy-4-piperidyl]acetyl]-2,7-diazaspiro[3.5]nonan-2-yl]phenyl]-4-fluoro-1-oxo-isoindolin-2-yl]-N-thiazol-2-yl-acetamide] | – | 50 to 150
3 | O=C1CCC(N2Cc3c(OC4CCN(C(=O)CCCN5CCN(c6ccc(-c7ccc8cn(C(C(=O)Nc9nccs9)c9ncn%10c9CCC%10)nc8c7F)cn6)CC5)CC4)cccc3C2=O)C(=O)N1 (racemic) [Compound 62, (2RS)-2-(6,7-Dihydro-5H-pyrrolo[1,2-c]imidazol-1-yl)-2-[7-fluoro-6-[6-[4-[4-oxo-4-[4-[1-oxo-2-[(3RS)-2,6-dioxo-3-piperidyl]isoindolin-4-yl]oxy-1-piperidyl]butyl]piperazin-1-yl]-3-pyridyl]indazol-2-yl]-N-thiazol-2-yl-acetamide] | 19 | –
4 | O=C1CC[C@H](Nc2ccc(C3CCN(CC(=O)N4CC[C@H](Oc5ccc(-c6cc(F)c7c(c6)C(=O)N(C(C(=O)Nc6nccs6)c6ncn8c6CCC8)C7)cc5)C4)CC3)cc2)C(=O)N1 (stereo partly drawn) [Compound 42, 2-(6,7-dihydro-5H-pyrrolo[1,2-c]imidazol-1-yl)-2-[6-[4-[(3S)-1-[2-[4-[4-[[(3S)-2,6-dioxo-3-piperidyl]amino]phenyl]-1-piperidyl]acetyl]pyrrolidin-3-yl]oxyphenyl]-4-fluoro-1-oxo-isoindolin-2-yl]-N-thiazol-2-yl-acetamide] | 20 | –
5 | O=C1CCC(Nc2ccc(C3CCN(CC(=O)N4CCN(c5ccc(-c6cc(F)c7cn(C(C(=O)Nc8nccs8)c8ncn9c8CCC9)nc7c6)cn5)CC4)CC3)c(F)c2)C(=O)N1 (stereo not shown) [Compound 64, 2-(6,7-dihydro-5H-pyrrolo[1,2-c]imidazol-1-yl)-2-[6-[6-[4-[2-[4-[4-[(2,6-dioxo-3-piperidyl)amino]-2-fluoro-phenyl]-1-piperidyl]acetyl]piperazin-1-yl]-3-pyridyl]-4-fluoro-indazol-2-yl]-N-thiazol-2-yl-acetamide] | 137 | –
6 | O=C1CCC(Nc2ccc(C3CCN(CC(=O)N4CCN(c5ccc(-c6cc(Cl)c7cn(C(C(=O)Nc8nccs8)c8ncn9c8CCC9)nc7c6Cl)cc5)CC4)CC3)cc2)C(=O)N1 (racemic) [Compound 61, (2RS)-2-[4,7-Dichloro-6-[4-[4-[2-[4-[4-[[(3RS)-2,6-dioxo-3-piperidyl]amino]phenyl]-1-piperidyl]acetyl]piperazin-1-yl]phenyl]indazol-2-yl]-2-(6,7-dihydro-5H-pyrrolo[1,2-c]imidazol-1-yl)-N-thiazol-2-yl-acetamide] | 112 | –
7 | O=C1CCC(Nc2ccc(C3CCN(CC(=O)N4CCN(c5ccc(-c6ccc7cn(C(C(=O)Nc8nccs8)c8ncn9c8CCC9)nc7c6F)cn5)CC4)CC3)cc2)C(=O)N1 (racemic) [Compound 63, (2RS)-2-(6,7-Dihydro-5H-pyrrolo[1,2-c]imidazol-1-yl)-2-[7-fluoro-6-[6-[4-[2-[4-[4-[[(3RS)-2,6-dioxo-3-piperidyl]amino]phenyl]-1-piperidyl]acetyl]piperazin-1-yl]-3-pyridyl]indazol-2-yl]-N-thiazol-2-yl-acetamide] | 81 | –
8 | O=C1CC[C@@H](Nc2ccc(C3CCN(CC(=O)N4CCN(c5ccc(-c6cc(F)c7c(c6)C(=O)N(C(C(=O)Nc6nccs6)c6ncn8c6CCC8)C7)cc5)CC4)CC3)cc2)C(=O)N1 (stereo partly drawn) [Compound 7, 2-(6,7-dihydro-5H-pyrrolo[1,2-c]imidazol-1-yl)-2-[6-[4-[4-[2-[4-[4-[[(3R)-2,6-dioxo-3-piperidyl]amino]phenyl]-1-piperidyl]acetyl]piperazin-1-yl]phenyl]-4-fluoro-1-oxo-isoindolin-2-yl]-N-thiazol-2-yl-acetamide] | 18 | –
9 | O=C1CCC(Nc2ccc(C3CCN(CC(=O)N4CCC(Oc5ccc(-c6cc(F)c7c(c6)C(=O)N(C(C(=O)Nc6nccs6)c6ncn8c6CCC8)C7)cc5)CC4)CC3)cc2)C(=O)N1 (stereo not shown) [Compound 31, 2-(6,7-dihydro-5H-pyrrolo[1,2-c]imidazol-1-yl)-2-[6-[4-[[1-[2-[4-[4-[(2,6-dioxo-3-piperidyl)amino]phenyl]-1-piperidyl]acetyl]-4-piperidyl]oxy]phenyl]-4-fluoro-1-oxo-isoindolin-2-yl]-N-thiazol-2-yl-acetamide] | 32 | –
10 | O=C1CCC(c2ccc(N3CCC(O)(CC(=O)N4CC5(CCN(c6ccc(-c7cc(F)c8c(c7)C(=O)N(C(C(=O)Nc7nccs7)c7ncn9c7CCC9)C8)cc6)CC5)C4)CC3)c(F)c2)C(=O)N1 (stereo not shown) [Compound 159, 2-(6,7-dihydro-5H-pyrrolo[1,2-c]imidazol-1-yl)-2-[6-[4-[2-[2-[1-[4-(2,6-dioxo-3-piperidyl)-2-fluoro-phenyl]-4-hydroxy-4-piperidyl]acetyl]-2,7-diazaspiro[3.5]nonan-7-yl]phenyl]-4-fluoro-1-oxo-isoindolin-2-yl]-N-thiazol-2-yl-acetamide] | – | 50 to 150
11 | O=C1CCC(Nc2cccc(C3CCN(CC(=O)N4CCN(c5ccc(-c6cc(F)c7c(c6)C(=O)N(C(C(=O)Nc6nccs6)c6ncn8c6CCC8)C7)cc5)CC4)CC3)c2)C(=O)N1 (stereo not shown) [Compound 16, 2-(6,7-dihydro-5H-pyrrolo[1,2-c]imidazol-1-yl)-2-(6-(4-(4-(2-(4-(3-((2,6-dioxopiperidin-3-yl)amino)phenyl)piperidin-1-yl)acetyl)piperazin-1-yl)phenyl)-4-fluoro-1-oxoisoindolin-2-yl)-N-(thiazol-2-yl)acetamide] | 92 | –
12 | O=C1CCC(Nc2ccc(CC(=O)N3CCC(NC(=O)c4ccc(C#Cc5cc(F)c6c(c5)C(=O)N(C(C(=O)Nc5nccs5)c5ncn7c5CCC7)C6)cn4)CC3)cc2)C(=O)N1 (stereo not shown) [Compound 2, 5-[2-[2-[1-(6,7-dihydro-5H-pyrrolo[1,2-c]imidazol-1-yl)-2-oxo-2-(thiazol-2-ylamino)ethyl]-7-fluoro-3-oxo-isoindolin-5-yl]ethynyl]-N-[1-[2-[4-[(2,6-dioxo-3-piperidyl)amino]phenyl]acetyl]-4-piperidyl]pyridine-2-carboxamide] | 7 | –
13 | O=C1CCC(Nc2ccc(C3CCC(CC(=O)N4CCN(c5ccc(-c6cc(F)c7c(c6)C(=O)N(C(C(=O)Nc6nccs6)c6ncn8c6CCC8)C7)cc5)CC4)CC3)cc2)C(=O)N1 (racemic) [Compound 9, (2RS)-2-(6,7-Dihydro-5H-pyrrolo[1,2-c]imidazol-1-yl)-2-[4-fluoro-1-oxo-6-[4-[4-[2-[4-[4-[[(3RS)-2,6-dioxo-3-piperidyl]amino]phenyl]cyclohexyl]acetyl]piperazin-1-yl]phenyl]isoindolin-2-yl]-N-thiazol-2-yl-acetamide] | 30 | –

Source: US12486290B2, “Isoindolinone and indazole compounds for the degradation of EGFR” (C4 THERAPEUTICS, INC., priority 2019, dated 2025)
